The source of these data is publication PMC7689490, “Designed CXCR4 mimic acts as a soluble chemokine receptor that blocks atherogenic inflammation by agonist-specific targeting” (Nature Communications, 2020).

Data set [1] concerns primary mouse spleen B lymphocytes. Kind of data set: MIF-triggered Transwell chemotaxis of primary splenic B cells.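 Note: migration tracked over 4 h at 37 °C, read out as transmigrated cells counted by flow cytometry with absolute counting beads.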 Type of data set: cell-based. Particulars: 16 nM MIF; peptide at 5-fold molar excess (80 nM).
Description: Briefly, splenic B cells were isolated by negative depletion using a Pan B Cell Isolation Kit (Miltenyi Biotec, Bergisch Gladbach, Germany). […] Chemotaxis was followed for 4 h at 37 °C in a humidified atmosphere of 5% CO2. Migrated cells were counted by flow cytometry using CountBright™ Absolute Counting Beads (Molecular Probes-Invitrogen).
Data set [2] in a line: Circular dichroism (CD) spectroscopy (conformation, concentration dependence). In kind it is physicochemical. Particulars: far-UV CD at 1-20 µM, 10 mM sodium phosphate pH 7.4, 1% HFIP; region 210-225 nm; compared with msR4M-L1. Here is the method: Briefly, far-UV CD measurements were carried out between 195 and 250 nm. The response time was set at 1 s, intervals at 0.1 nm, and bandwidth at 1 nm. All spectra were measured at RT and represent an average of three recorded spectra. Scans were recorded for the ectodomain mimic peptides at a concentration of 1–20 µM in 10 mM sodium phosphate buffer, pH 7.4, containing 1% HFIP, following dilution of freshly made peptide stock solution in HFIP (4 °C) into the buffer-containing cuvette. […] The background spectrum of buffer/1% HFIP alone was subtracted from the spectra of the peptides.
(Circular dichroism is the unequal absorption of left and right circularly polarised light.)

The nature of data set [3]: in vivo.
Description: Plasma was immediately separated by centrifugation at 3000 rpm for 10 min at 4 °C, and placed on ice protected from light. Plasma aliquots were diluted (1:1) with SDS-PAGE sample buffer, boiled, analyzed in 10–20% Tricine SDS-PAGE gels, and red fluorescent bands imaged by Odyssey® Fc imager.
A short description of data set [4]: in vitro. Conditions: C57/BL6, mouse, plasma.
Description: (§2) Mouse plasma was prepared from blood of wildtype C57/BL6 mice by standard procedure. […] Samples were then diluted in 2x Novex Tricine SDS sample buffer (Life Technologies) at a ratio of 1:6, electrophoresed in a 10–20% Tricine gel, and red fluorescent bands directly imaged with an Odyssey® Fc imager. Human plasma was prepared from blood of healthy volunteers by standard procedure.
Data set [5] can be described thus: in vitro. Conditions: human, plasma.
Description: as §2
Data set [6] has as its system primary human monocyte-derived macrophages. Kind of data set: MIF-mediated DiI-oxLDL uptake / foam cell formation. Type of data set: cell-based. Conditions: 80 nM MIF; AMD3100 10 µM. Here is the method: (§1) After washing with imaging solution (MEM without phenol red containing 30 mM HEPES, 0.5 g/L NaHCO3, pH 7.4, and 0.2% BSA), cells were exposed to 50 µg mL^−1 1,1′-dioctadecyl-3,3,3′3′-tetramethylindocarbocyanine-labeled oxidized LDL (DiI-oxLDL) or DiI-labeled native LDL (DiI-LDL) for 30 min at 4 °C, followed by incubation at 37 °C for 20 min. Cells were washed with ice-cold imaging solution (pH 3.5), fixed, and counter-stained with Hoechst 33258.

The test system is the same in data set [7]. Kind of data set: MIF-mediated DiI-LDL uptake / foam cell formation. Type of data set: cell-based. Conditions: 80 nM MIF. The protocol: as §1
The subject of data set [8] is pAMPK/AMPK in HCM. The experiment in a line: MIF/CD74-triggered AMPK signaling in human cardiomyocytes (HCM). In kind it is cell-based. The protocol:
HCMs (2 × 10^5 per well) were plated in 12-well plates and maintained for 2 days with cultured medium containing 5% FCS. Before stimulation, medium was replaced by fresh myocyte basal medium containing 0.05% FCS and HCMs rested for 16 h. Surface CD74 expression on HCMs was verified by flow cytometry (FITC-conjugated anti-human CD74 (1:100 dilution), FITC-IgG2 (isotype control) (BD Pharmingen), 1 h/4 °C in the dark, BD FACSVerse™ flow cytometer, FlowJo software). […] After treatment, cells were lysed and subjected to SDS-PAGE (10%)/Western blotting using NuPAGE® lithium dodecyl sulfate (LDS)/dithiothreitol (DTT) lysis buffer-containing PhosSTOP^TM reagent (Roche Applied Science). […] Anti-rabbit horse-radish peroxidase (HRP)-conjugated antibody (1:10000, GE Healthcare, Freiburg, Germany) was used for development and signals quantitated by chemiluminescence using an Odyssey® Fc imager. Unprocessed scans of the Western blots are supplied in the Source Data file.

Data set [9] concerns MIF/CD74. Particulars: read-out: IC50 value for MIF/CD74 binding; ref [16],[43]; cited from earlier work. The text has this:
Specificity of the inhib ...

For data set [10], the target named is T1, MIF (Homo sapiens, UniProt P14174).
T1 construct: made in house; host or cells: E. coli BL21/DE3 (pET11b)
T1 sequence (P14174 2-115): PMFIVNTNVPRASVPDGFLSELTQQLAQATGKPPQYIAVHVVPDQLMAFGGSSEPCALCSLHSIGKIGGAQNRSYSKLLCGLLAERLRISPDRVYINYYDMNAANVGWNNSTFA
The experiment in a line: Fluorescence spectroscopic titration of CXCR4 ectodomain peptides (and ISO-1) with MIF. In kind it is binding.
Description: Fluorescence spectroscopic titrations were performed using a JASCO FP-6500 fluorescence spectrophotometer.

Where “and” joins values, the source holds several entries; their conditions need not be identical. Equal values may be shown once. Read-outs that look alike come from different tables or passages of the source. Where a SMILES comes first, the peptide text is derived from it. Bounds are passed on as bounds.

Take `CC[C@H](C)[C@H](NC(=O)[C@H](Cc1ccc(O)cc1)NC(=O)[C@H](CCCNC(=N)N)NC(=O)[C@H](CC(=O)O)NC(=O)CCCCCCCCCCCNC(=O)COCCOCCNC(=O)[C@H](CCCCN)NC(=O)[C@H](CS)NC(=O)[C@H](CC(C)C)NC(=O)[C@H](Cc1ccccc1)NC(=O)[C@H](CC(N)=O)NC(=O)CNC(=O)[C@H](Cc1ccccc1)NC(=O)[C@H](Cc1ccc(O)cc1)NC(=O)[C@H](Cc1c[nH]c2ccccc12)NC(=O)[C@H](CC(N)=O)NC(=O)[C@H](C)NC(=O)[C@@H](NC(=O)[C@H](C)NC(=O)[C@@H](N)CC(=O)O)C(C)C)C(=O)N[C@@H](CS)C(=O)N[C@@H](CC(=O)O)C(=O)N[C@@H](CCCNC(=N)N)C(=O)N[C@@H](Cc1ccccc1)C(=O)N[C@@H](Cc1ccc(O)cc1)C(=O)N1CCC[C@H]1C(=O)N[C@@H](CC(N)=O)C(=O)N[C@@H](CC(=O)O)C(=O)N[C@@H](CC(C)C)C(=O)N[C@@H](Cc1c[nH]c2ccccc12)C(=O)N[C@H](C(N)=O)C(C)C` [msR4M-L2]: in data set [1], the “inhibition of MIF-mediated B-cell chemotaxis” value is listed as “fully blocked”. In addition, the “aggregation propensity from concentration-dependent CD signal” value in [2] is on record as “higher aggregation propensity”.
`CC[C@H](C)[C@H](NC(=O)[C@H](Cc1ccc(O)cc1)NC(=O)[C@H](CCCNC(=N)N)NC(=O)[C@H](CC(=O)O)NC(=O)CCCCCCCCCCCNC(=O)CCCCCNC(=O)[C@H](CCCCN)NC(=O)[C@H](CS)NC(=O)[C@H](CC(C)C)NC(=O)[C@H](Cc1ccccc1)NC(=O)[C@H](CC(N)=O)NC(=O)CNC(=O)[C@H](Cc1ccccc1)NC(=O)[C@H](Cc1ccc(O)cc1)NC(=O)[C@H](Cc1c[nH]c2ccccc12)NC(=O)[C@H](CC(N)=O)NC(=O)[C@H](C)NC(=O)[C@@H](NC(=O)[C@H](C)NC(=O)[C@H](CC(=O)O)NC(=O)c1ccc2c(c1)C(=O)OC21c2ccc(N(C)C)cc2Oc2cc(N(C)C)ccc21)C(C)C)C(=O)N[C@@H](CS)C(=O)N[C@@H](CC(=O)O)C(=O)N[C@@H](CCCNC(=N)N)C(=O)N[C@@H](Cc1ccccc1)C(=O)N[C@@H](Cc1ccc(O)cc1)C(=O)N1CCC[C@H]1C(=O)N[C@@H](CC(N)=O)C(=O)N[C@@H](CC(=O)O)C(=O)N[C@@H](CC(C)C)C(=O)N[C@@H](Cc1c[nH]c2ccccc12)C(=O)N[C@H](C(N)=O)C(C)C` [TAMRA-msR4M-L1]: the level at 24 h in [3] (C57/BL6, mouse, 50 ug) was above 100 ng/mL. The compound also gave a level at 48 h in data set [3] (C57BL/6, mouse, ip, 50 ug per mouse) of around 100 ng/mL. In data set [4], this compound showed a half-life at 482 nM of around 20 h.
In turn, `CC[C@H](C)[C@H](NC(=O)[C@H](Cc1ccc(O)cc1)NC(=O)[C@H](CCCNC(=N)N)NC(=O)[C@H](CC(=O)O)NC(=O)CCCCCCCCCCCNC(=O)CCCCCNC(=O)[C@H](CCCCN)NC(=O)[C@H](CS)NC(=O)[C@H](CC(C)C)NC(=O)[C@H](Cc1ccccc1)NC(=O)[C@H](CC(N)=O)NC(=O)CNC(=O)[C@H](Cc1ccccc1)NC(=O)[C@H](Cc1ccc(O)cc1)NC(=O)[C@H](Cc1c[nH]c2ccccc12)NC(=O)[C@H](CC(N)=O)NC(=O)[C@H](C)NC(=O)[C@@H](NC(=O)[C@H](C)NC(=O)[C@H](CC(=O)O)NC(=O)CCCCCNC(=O)CCCC[C@@H]1SC[C@@H]2NC(=O)N[C@@H]21)C(C)C)C(=O)N[C@@H](CS)C(=O)N[C@@H](CC(=O)O)C(=O)N[C@@H](CCCNC(=N)N)C(=O)N[C@@H](Cc1ccccc1)C(=O)N[C@@H](Cc1ccc(O)cc1)C(=O)N1CCC[C@H]1C(=O)N[C@@H](CC(N)=O)C(=O)N[C@@H](CC(=O)O)C(=O)N[C@@H](CC(C)C)C(=O)N[C@@H](Cc1c[nH]c2ccccc12)C(=O)N[C@H](C(N)=O)C(C)C` [biotin-msR4M-L1] gave a fraction remaining at 16 h, 13.7 µM in [5] of around 45%.
Consider `c1cc(CN2CCCNCCNCCCNCC2)ccc1CN1CCCNCCNCCCNCC1` [AMD3100], for which, in data set [6], the “effect on MIF-mediated DiI-oxLDL uptake” value is given as “blocked”. Besides, in [7] (control ~1, MIF alone 2.09-3.63, individual experiments (four-times-two)), the “DiI-LDL uptake (rel. units), MIF + AMD3100” value was 0.6486 and 2.2972 and 2.822 and 1.2299 and 1.463 and 1.618 and 1.791 and 1.537.
Turning to `COC(=O)CC1CC(c2ccc(O)cc2)=NO1` (centres unmarked) [ISO-1], the “Fig. 4e, Mean Diff, (Tukey's multiple comparisons test)” value was found to be 0.3348 in data set [8] (B-C: MIF alone vs. MIF + ISO-1 3.1), 0.4593 in data set [8] (B-D: MIF alone vs. MIF + ISO-1 15.6), 0.6907 in data set [8] (B-E: MIF alone vs. MIF + ISO-1 31.3) and 0.8729 in [8] (B-F: MIF alone vs. MIF + ISO-1 62.5). The IC50 in [9] was 10000 nM.
In the case of `CC[C@H](C)[C@H](NC(=O)[C@H](Cc1ccc(O)cc1)NC(=O)[C@H](CCCNC(=N)N)NC(=O)[C@H](CC(=O)O)NC(=O)CCCCCCCCCCCNC(=O)CCCCCNC(=O)[C@H](CCCCN)NC(=O)[C@H](CS)NC(=O)[C@H](CC(C)C)NC(=O)[C@H](C)NC(=O)[C@H](CC(N)=O)NC(=O)CNC(=O)[C@H](C)NC(=O)[C@H](C)NC(=O)[C@H](C)NC(=O)[C@H](CC(N)=O)NC(=O)[C@H](C)NC(=O)[C@@H](NC(=O)[C@H](C)NC(=O)[C@@H](N)CC(=O)O)C(C)C)C(=O)N[C@@H](CS)C(=O)N[C@@H](CC(=O)O)C(=O)N[C@@H](CCCNC(=N)N)C(=O)N[C@@H](C)C(=O)N[C@@H](C)C(=O)N1CCC[C@H]1C(=O)N[C@@H](CC(N)=O)C(=O)N[C@@H](CC(=O)O)C(=O)N[C@@H](CC(C)C)C(=O)N[C@@H](C)C(=O)N[C@H](C(N)=O)C(C)C` [msR4M-L1(7xAla)] (HELM PEPTIDE1{D.A.V.A.N.A.A.A.G.N.A.L.C.K.[O=C(CCCCCN[*:1])[*:2]].[O=C(CCCCCCCCCCCN[*:1])[*:2]].D.R.Y.I.C.D.R.A.A.P.N.D.L.A.V.[am]}$$$$V2.0), the “inhibition of MIF-mediated B-cell chemotaxis” value in [1] was “failed to inhibit”. Moreover, the “inhibition of MIF-mediated DiI-LDL uptake” value in [7] is recorded as “failed to inhibit”. The Kd in [10] was above 1000 nM; in data set [10] (App. Kd Fluos-peptide/MIF, 1st curve, fluorescence spectroscopy, replicate 1) it was above 1000 nM; in data set [10] (App. Kd Fluos-peptide/MIF, 2nd curve, fluorescence spectroscopy, replicate 2), above 1000 nM; in [10] (App. Kd Fluos-peptide/MIF, 3rd curve, fluorescence spectroscopy, replicate 3), above 1000 nM; in data set [10] (app. KD Fluos-labeled alanine analog/MIF, fluorescence titration spectroscopy, n=3), above 1000 nM.

As usually defined, the half-life is how long it takes for the measured level to halve. High values mean slow decline, low ones rapid decline. The fraction remaining is what is left of the initial amount, in per cent.
